Measurements published in patent publication US8334107B2, “Detection systems utilizing supported lipid bilayers” (priority 2005, dated 2012).

Key:
[1] = tested on: DMPG lipid bilayer on MS-PPE; assay: Disruption of DMPG lipid bilayer on MS-PPE detected by superquenching with AQS, flow cytometry; assay type: biochemical; conditions: 10 μM AQS; sMLT 3.8 μM, nMLT 1.6 μM
Protocol: Lipid bilayers were disrupted by adding Triton X-100® detergent to the bead suspension to a final concentration of 0.25% (w/v).
Bead suspensions of 2.5×10^5 PPE-coated microspheres in 200 μL PBS were analyzed using a FACScan flow cytometer (Becton-Dickinson, Sunnyvale, Calif.) with excitation at 488 nm. Fluorescence signals were acquired on the FL-1 channel (525 nm) using log amplification and analyzed with the CellQuest software.
(§1) Bead suspensions of 2.5×10^5 DMPG-coated MS-PPE in 200 μL of PBS were analyzed using a FACScan flow cytometer (Becton-Dickinson, Sunnyvale, Calif.) with excitation at 488 nm. Fluorescence signals were acquired on FL-1 channel (525 nm) using log amplification and analyzed with the CellQuest software. Kinetic analysis of disruption of supported lipid bilayer by melittin was performed by acquiring real-time data with continuous mixing of samples (10^6 MS-PPE in 800 μl of PBS) using a magnetic stirrer. The raw data were analyzed using IDL Query software developed by Bruce Edwards (Cancer Center, University of New Mexico, Albuquerque, N. Mex.).
Because an anionic lipid was used to form a lipid bilayer around MS-PPE, it was expected that MLT will disrupt the DMPG lipid bilayer by such a detergent-like action. This was tested by adding 10 μM AQS to DMPG-coated MS-PPE followed by treatment with one of the following: Triton X-100® detergent, synthetic MLT (sMLT), or natural MLT (nMLT) and immediately reading the fluorescence by flow cytometry. […] These histograms resemble the ones reported previously for MS-PPE, without a lipid coating, in absence and in presence of AQS.
The kinetics of disruption of supported lipid bilayer by MLT were monitored by measuring real-time changes in fluorescence intensity by flow cytometry (FIG. 19). Suspensions of 10^6 DMPG-coated MS-PPE in 800 μL of PBS were treated with AQS at a final concentration of 10 μM, then with either sMLT, Triton X-100® detergent, or no treatment. […] Treatment with sMLT in the absence of AQS led to an increase in normalized fluorescence (FIG. 19, trace A). This can be attributed to disruption of the lipid bilayer by sMLT, and is consistent with a reversal of the slight quenching of fluorescence caused by the formation of a DMPG lipid bilayer over MS-PPE. Addition of AQS alone to DMPG-coated MS-PPE (FIG. 19, trace C) led to a 20% reduction in fluorescence as reported earlier. Addition of Triton X-100® detergent to DMPG-coated MS-PPE after the addition of AQS (first dip in trace E, FIG. 19) caused immediate decrease in fluorescence to ˜10% of its original value (second dip in trace E, FIG. 19). In contrast, addition of sMLT, after the addition of AQS, (FIG. 19, trace D) led to a gradual reduction of fluorescence intensity to ˜20% of the original value. Although MLT forms dimers at high concentrations (Dempsey, C. E. Biochim. Biophys. Acta 1990, 1031, 143-161), it is monomeric at the concentrations used in this study. On the other hand, Triton X-100® detergent forms micelles at the concentration used in this study.

DMPG supported on MS-PPE = assay: Binding curves of MLT to DMPG supported on MS-PPE (superquenching flow cytometric assay); conditions: flow cytometry, 10 μM AQS
Protocol: FIGS. 18A-B show binding curves for MLT-disruption of supported lipid bilayer by natural MLT (nMLT; FIG. 18A), and synthetic MLT (sMLT; FIG. 18B). Fluorescence intensity was normalized to that without MLT as determined by flow cytometry. The error bars represent the standard deviation (SD) of the means of normalized histograms obtained for 3 replicates.
as §1
From FIG. 18, the association constant (corresponding to the reciprocal of the point of half saturation) for nMLT and sMLT with DMPG were 5×10^6 M^−1 and 1.7×10^6 M^−1, respectively. […] Lower concentrations of nMLT, in comparison to sMLT, were required to disrupt the DMPG lipid bilayer. This might be attributed to the fact that nMLT contains some phospholipase A2 (PLA2) as a contaminant. […]

[2] = tested on: DMPG bilayer on PPE-coated beads; assay: Microfluidic assay: detection of lipid bilayer disruption by fluorescence superquenching; assay type: biochemical; conditions: injected as 1:1 mixture with 120 μM AQS
Protocol: The preparation of microcolumns with PPE-coated, silica beads was similar to that of with fluorescein containing beads. A 10 μL aliquot of 120 μM AQS was injected to the column. After a certain period of time, a 10 μL aliquot of 1:1 mixture of 120 μM AQS and 220 μM melittin was injected. During this process, the PPE-coated silica bead segment was irradiated at 488 nm and its fluorescence emission intensity was measured at 520 nm every 10 minutes. This experiment was repeated, while injecting 220 μM melittin first, and then 120 μM AQS.
The feasibility of using superquenching as a method of detecting membrane-toxin interactions in microcolumns was also investigated. The fluorescence intensity of the cationic polyelectrolyte poly(p-phenylene-ethynylene) polymer (PPE) can be super-quenched by the quencher 9,10-anthraquinone-2,6-disulfonic acid (AQS). […] It has been observed in flow cytometric studies that formation of DMPG membranes on PPE-coated beads will quench the PPE fluorescence to some extent. The initial rise in fluorescence intensity was probably due to the unquenching of the PPE, due to the removal of lipid bilayers from PPE-coated beads through melittin interaction, whereas the decrease in fluorescence corresponded to superquenching of PPE by AQS after disruption of DMPG bilayer by melittin. […]

[3] = tested on: EPC bilayer on porous silica beads; assay: Suspension study: release of fluorescein dye from lipid bilayer coated porous silica beads; assay type: biochemical; conditions: all three concentrations 15, 45 and 250 μg/mL
Protocol: Lipid coatings on beads were disrupted using 10% Triton X-100. Each sample in micro-centrifuge tubes contained 5 mg of lipid bilayer coated, fluorescein entrapped beads in 200 μL of Tris buffer. Samples were centrifuged and 100 μL aliquots of supernatant were mixed with either 100 μL of Tris buffer or 100 μL of 10% Triton X-100® detergent in separate centrifuge tubes. The fluorescence intensity of each mixture was immediately (time=0) recorded. Each mixture was mixed with its respective bead sample in centrifuge tube and incubated at 25° C. in the dark. After 30 min, samples were centrifuged and fluorescent intensity of the supernatants was measured. Beads were resuspended in their respective supernatants. Fluorescence intensity was again measured at 90 and 150 min.
Experimental procedures were similar to the Triton X-100® detergent based analysis. For experiments with α-toxin, three different toxin concentrations: 15, 45 and 250 μg/mL were used at 37° C. and 25° C. Beads coated with EPC were used. In the experiments with melittin, 220 μM melittin was used with beads coated with either 100% EPC, 10:90 (molar ratio) mixture of DMPG and EPC or an 80:20 mixture of DMPG and DMPC. All melittin experiments were conducted at 25° C.
Previous suspension studies on disruption of lipid bilayers have been performed with small unilamellar vesicles where disruption of the lipid bilayer membranes was detected by monitoring the unquenching of a highly concentrated, encapsulated dye. In the present work disruption was monitored via release of fluorescein dye from porous beads, by measuring the increase in fluorescence intensity of the supernatant at 520 nm. Beads were first suspended in Tris buffer containing the disruptor. After selected time periods, beads were sedimented by centrifuging and a portion of the supernatant was taken for the measurement. The measured portion was added back to the bead sample to permit continuous monitoring. The scattering effect that was present in vesicle based studies was minimized by measuring only the supernatant after centrifugation of the beads.

[4] = tested on: supported lipid bilayer surrounding a porous bead; assay: Kinetics of disruption of supported lipid bilayer by α-toxin, pH-reactive fluorescein in porous beads, flow cytometry; assay type: biochemical; conditions: pH outside 11.0, inside 2.6
From the text: FIGS. 4A-B illustrates the effects of alpha-toxin on lipid bilayer integrity. FIG. 4A graphically illustrates dose-dependent release of fluorescent dye from a lipid bilayer coated microbead after introduction of different concentrations of alpha-toxin, a membrane-associated pore-forming protein from Staphylococcus aureus. The normalized fluorescence intensity (at 520 nm) of the supernatant is plotted versus time for EPC-coated, fluorescein filled porous beads when using different concentrations of α-toxin added. 10% Triton was added after 150 min. FIG. 4B illustrates the kinetics of disrupting a supported lipid bilayer by α-toxin as monitored by recording changes in fluorescence intensity every 2 minutes by flow cytometry. The lipid bilayer surrounded a porous bead that contains a pH-reactive molecule (fluorescein), and the pH outside the beads was adjusted to 11.0, whereas inside the beads the pH was 2.6. As illustrated, increasing amounts of α-toxin increases the fluorescence emitted from within the beads.
In another experiment a lipid bilayer surrounding a porous bead that contains a pH-reactive molecule (fluorescein) was exposed to α-toxin. The pH outside the beads was adjusted to 11.0, whereas inside the beads the pH was 2.6. The kinetics of disruption of supported lipid bilayer by α-toxin were monitored by recording changes in fluorescence intensity every 2 minutes by flow cytometry. For the first 8 minutes there was no significant change in fluorescence intensity (FIG. 4B). However, after 8 minutes there was a gradual increase in fluorescence intensity (FIG. 4B) resulting from insertion of α-toxin into the supported lipid bilayer thus forming channels permeable to hydrogen cations and hydroxyl ions, which reduces the difference in the pH outside and inside the microspheres. […] This can be attributed to insertion of many α-toxin channels at this high concentration leading to disruption of the lipid bilayer and immediate equilibration of the pH inside and outside the porous microspheres.

EPC vesicles = conditions: incubation with α-toxin; cited from earlier work

Substance | quenching of the MS-PPE after treatment [1] | association constant (reciprocal of the point of half saturation) with DMPG (DMPG supported on MS-PPE) [M⁻¹] | change in fluorescence intensity of bead segment [2] | increase in fluorescence intensity after 150 min ([3]; 25° C.) | increase in fluorescence intensity after 150 min ([3]; 37° C.) | change in fluorescence intensity ([4]; 45 μg/mL) | concentration at which the increase in fluorescence intensity reached its maximum [4] [µg/mL] | time without significant change in fluorescence intensity before gradual increase ([4]; read every 2 minutes) [min] | dye encapsulated in EPC vesicles released (EPC vesicles) [%]
nMLT: natural melittin from Sigma, contains some phospholipase A2 as a contaminant | comparable to that occurring on addition of Triton X-100 | 5e+06 | slight rise in fluorescence intensity followed by a significant decrease |  |  |  |  |  | 
α-toxin: membrane active pore-forming protein secreted by Staphylococcus aureus, ~33 kDa |  |  |  | about 3 fold | about 6.5 fold | did not cause a change in fluorescence intensity different from the baseline | 15 | 8 | 27
